According to PMC4551797 (PLoS ONE, 2015):

Tests used:
[1] = biological target: T1, GPR119 (Homo sapiens, UniProt Q8TDV5); test: Selectivity: enteroendocrine GPCR GPR119
T1 sequence (Q8TDV5 1-335): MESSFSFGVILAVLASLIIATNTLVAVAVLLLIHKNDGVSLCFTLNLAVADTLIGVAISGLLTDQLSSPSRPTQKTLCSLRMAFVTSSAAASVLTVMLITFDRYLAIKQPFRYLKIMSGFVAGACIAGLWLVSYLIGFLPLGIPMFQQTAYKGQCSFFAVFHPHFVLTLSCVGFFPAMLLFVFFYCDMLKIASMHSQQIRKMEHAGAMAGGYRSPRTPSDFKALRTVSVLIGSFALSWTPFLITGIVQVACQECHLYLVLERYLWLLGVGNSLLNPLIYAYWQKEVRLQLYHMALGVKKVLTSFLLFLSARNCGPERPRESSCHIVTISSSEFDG

[2] = biological target: T2, human TGR5 receptor (Homo sapiens, UniProt Q8TDU6); test: cAMP production in NCI-H716 enteroendocrine cells (endogenous TGR5); format: cell-based
T2 construct: in cells with endogenous levels of receptor; host or cells: NCI-H716 (human enteroendocrine)
T2 sequence (Q8TDU6 1-330): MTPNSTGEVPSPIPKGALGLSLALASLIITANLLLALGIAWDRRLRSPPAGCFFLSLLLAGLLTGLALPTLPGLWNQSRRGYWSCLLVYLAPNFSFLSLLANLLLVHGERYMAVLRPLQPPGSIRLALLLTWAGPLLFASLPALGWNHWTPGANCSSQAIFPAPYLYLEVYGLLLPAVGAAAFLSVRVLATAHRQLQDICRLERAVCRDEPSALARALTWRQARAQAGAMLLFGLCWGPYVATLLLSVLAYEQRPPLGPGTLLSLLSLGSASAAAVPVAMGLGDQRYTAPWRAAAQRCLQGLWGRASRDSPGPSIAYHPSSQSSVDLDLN
Method: HEK-293 cells were obtained from ATCC and a clonal HEK-293 line overexpressing mouse TGR5 was prepared. Both were maintained in Dulbecco’s modified Eagle’s medium (DMEM) containing 10% fetal bovine serum (FBS) and penicillin /streptomycin. Mouse STC-1 cells were obtained from ATCC under agreement with the Cold Spring Harbor Laboratories and maintained in DMEM containing 10% FBS and penicillin /streptomycin. NCI-H716 cells were obtained from ATCC and were maintained in RPMI-1640 with 10% FBS. NCI-H716 cells were cultured in 96 well plate coated with Matrigel (BD). After 72 hours, cAMP production stimulated with TGR5 agonists was measured using HTRF cAMP assay kit (CISBIO). The level of cAMP in suspensions of STC-1 cells stimulated with increasing concentrations of TGR5 agonists was also determined. […] The production of GLP-1 was determined using a GLP-1 Assay (7–36) amide kit (Mesoscale Discovery) following the manufacturer’s instructions. […]
Compound 18 is a novel small molecule agonist of TGR5 developed by Eli Lilly and Company (MW = 508.62, Fig 2A). […] In order to determine potency of compound 18 for the mouse and human TGR5 receptor in cells with endogenous levels of receptor, we measured compound 18-stimulated cAMP production and GLP-1 secretion in both mouse (STC-1) and human (NCI-H716) enteroendocrine cell lines, that we have shown to express TGR5 natively (Fig 1). […]

[3] = tested on: DIO C57BL/6 mice; test: Body weight, food intake and body composition in DIO mice over two weeks; format: in vivo, mouse; details: 60 mg/kg oral once a day
Method: Body composition of mice was determined using Quantitative Nuclear Magnetic Resonance analysis (ECHO MRI, 3–1 Composition Analyzer; Echo Medical Systems, Houston, TX). DIO mice were randomized by body weight and fat mass prior to administration of compounds. Changes in body weight, cumulative food intake, and fat and lean mass were recorded for up to a two week period.
While compound 18 led to significant glucose lowering in an OGTT studies when dosed acutely, it remained unclear if the mechanism of TGR5-stimulated GLP-1 secretion desensitizes over time. […] In order to determine if desensitization occurs, as well as explore the potential for changes in body weight by compound 18, we obtained DIO C57BL/6 mice and randomly assigned them into either an acute or chronic study. For the acute experiment, overnight-fasted DIO mice were dosed with vehicle or 60 mg/kg of compound 18 the next morning, and an OGTT was performed 30 minutes after compound dosing using 2 g/kg glucose. For the chronic study, DIO mice were orally dosed with vehicle or 60 mg/kg compound 18 once a day for two weeks; body weights and food intake were measured during the treatment period. After two weeks, mice were over-night fasted, dosed the following morning, and subjected to an OGTT 30 minutes after compound dosing.
Diet-induced obese (DIO) C57BL/6 mice were either dosed acutely or chronically for two weeks with vehicle (white circles, white bars) or compound 18 at 60 mg/kg (black triangles, black bars). An OGTT on over-night fasted DIO mice was performed after either a single dose (A, acute) or after two weeks of dosing (B, chronic), using 2 g/kg glucose dosed 30 minutes after compound dosing. Changes in body weights (C) and cumulative food intake (D) were recorded for the two week period. n = 8; mean +/- SEM. * P < 0.01.

CC(=O)N1CCC(C(C)N(C(=O)COc2cccc3sc4nc(C)cn4c23)c2ccc(F)cc2)CC1 (stereo not drawn) [compound 18]
EC50 [1]: > 125 µM | EC50 [2]: 3.1 µM | food intake [3]: no change in food intake | reduction in body weight gain versus vehicle [3]: 1.4 g | lean mass ([3]; P = 0.995): no difference in lean mass | gain in fat mass ([3]; p = 0.067): trend towards reduced gain in fat mass
